# Test results reported in US6380198B1 (Laboratoire Medidom S.A., priority 1997, dated 2002).
# Where “and” joins values, the source holds several entries; their conditions need not be identical. Equal entries are not always repeated.
# How the values were obtained:
# [1] = system: intraocular pressure of rabbits showing normal baseline intraocular pressure; assay: Intraocular pressure in rabbits with normal intraocular pressure after topical instillation; assay type: in vivo, rabbit (Vienna Blue, pigmented); details: 50 μl eye-drops; 0.050% flunarizine, equimolar comparators, 0.5% timolol
# Method: The effects of the agent of the invention on the intraocular pressure of rabbits showing normal baseline intraocular pressure were evaluated in comparison with the action of a placebo, and with that of various other calcium channel blocking agents. Female pigmented rabbits of the Vienna Blue strain were used (supplied by Charles River Italiana, of Calco (CO)). The age of the animals at the time of starting the experimentation was 9 weeks, and their weight was 2.0-2.5 kg.
# The choice of a species with pigmented iris is due to the fact that the latter represents a reliable model for the evaluation of possible modifications of the intraocular pressure caused by the products under test. The strain chosen is genetically defined, so as to limit to a minimum the variability of the biological characteristics between one animal and the other.
# The animals were kept in rooms maintained under constant and controlled conditions of temperature and humidity, illuminated for 12 hours a day with artificial light and with continuous renovation of the air. The feed consisted of a standard diet having a constant and known composition, and both feed and water were available ad libitum during the whole period of the test. The rabbits were stabled for 21 days before starting the test, so as to allow a sufficient acclimatation and to suitably evaluate the health conditions of the rabbits. Each experimental group consisted of 4 animals, which were allotted to the treatment groups in a randomised way.
# Each different group of animals received, by instillation in the right conjunctival fornix, 50 μl of the following products:
# The weight concentrations of the various agents under test are chosen so as to correspond to the same molar concentration.
# The pressure in the treated eye was measured by flattening tonometer (TonopenXL®, Mentor), 15 minutes before the instillation of the eyerops (time 0) and then 30, 60, 90, 120, 180 and 240 minutes after. As a local anaesthetic, 5 minutes before carrying out each measurement 25 μl of a commercial ophthalmic solution containing 0.4% oxybuprocaine hydrochloride (Novesine®, Sandoz) was instilled. To carry out the measurement the rabbits were placed in a suitably designed cage, that prevents any sudden movement of the animal under test.
# For each animal and at each of the times listed above the average of three subsequent measurements was calculated and recorded, each one said measurements being made after 1 minute from the previous one. The intraocular pressure values at the various times were compared with the values obtained before the treatment, by means of the Student's “t” test. The comparisons between different groups were made by processing the data by the variance analysis (ANOVA) and, where possible, by the Student's “t” test for the comparison of two different experimental groups. Values of p<0.05 were considered to be statistically significant.
# [2] = system: intraocular pressure of rabbits with ocular hypertension; assay: Intraocular pressure in rabbits with ocular hypertension induced by α-chymotrypsin; assay type: in vivo, rabbit (Vienna Blue, pigmented); details: for Intraocular pressure (mmHg) at the time (min): 30, average ± S.D. / Intraocular pressure (mmHg) at the time (min): 60, average ± S.D. / Intraocular pressure (mmHg) at the time (min): 90, average ± S.D. / Intraocular pressure (mmHg) at the time (min): 120, average ± S.D. / Intraocular pressure (mmHg) at the time (min): 180, average ± S.D. / Intraocular pressure (mmHg) at the time (min): 240, average ± S.D. / Intraocular pressure (mmHg) at the time (min): 0, average ± S.D. / Intraocular pressure (mmHg) at the time (min): 30 / Intraocular pressure (mmHg) at the time (min): 60 / Intraocular pressure (mmHg) at the time (min): 90 / Intraocular pressure (mmHg) at the time (min): 120 / Intraocular pressure (mmHg) at the time (min): 180 / Intraocular pressure (mmHg) at the time (min): 240 / Intraocular pressure (mmHg) at the time (min): 0: Table 4, 50 μl; for Intraocular pressure (mmHg) at the time (min): 30, average ± S.D. / Intraocular pressure (mmHg) at the time (min): 60, average ± S.D. / Intraocular pressure (mmHg) at the time (min): 90, average ± S.D. / Intraocular pressure (mmHg) at the time (min): 120, average ± S.D. / Intraocular pressure (mmHg) at the time (min): 180, average ± S.D. / Intraocular pressure (mmHg) at the time (min): 240, average ± S.D. / Intraocular pressure (mmHg) at the time (min): 0, average ± S.D.: average ± S.D. of 4 rabbits; for Intraocular pressure (mmHg) at the time (min): 30, average ± S.D. / Intraocular pressure (mmHg) at the time (min): 30: 30 min after instillation; for Intraocular pressure (mmHg) at the time (min): 60, average ± S.D. / Intraocular pressure (mmHg) at the time (min): 60: 60 min after instillation; for Intraocular pressure (mmHg) at the time (min): 90, average ± S.D. / Intraocular pressure (mmHg) at the time (min): 90: 90 min after instillation; for Intraocular pressure (mmHg) at the time (min): 120, average ± S.D. / Intraocular pressure (mmHg) at the time (min): 120: 120 min after instillation; for Intraocular pressure (mmHg) at the time (min): 180, average ± S.D. / Intraocular pressure (mmHg) at the time (min): 180: 180 min after instillation; for Intraocular pressure (mmHg) at the time (min): 240, average ± S.D. / Intraocular pressure (mmHg) at the time (min): 240: 240 min after instillation; for Intraocular pressure (mmHg) at the time (min): 0, average ± S.D. / Intraocular pressure (mmHg) at the time (min): 0: time 0 = 15 min before instillation (baseline); for Intraocular pressure (mmHg) at the time (min): 30 / Intraocular pressure (mmHg) at the time (min): 60 / Intraocular pressure (mmHg) at the time (min): 90 / Intraocular pressure (mmHg) at the time (min): 120 / Intraocular pressure (mmHg) at the time (min): 180 / Intraocular pressure (mmHg) at the time (min): 240 / Intraocular pressure (mmHg) at the time (min): 0: individual rabbit, right eye
# Method: Rabbits of the same type as those described in the previous section were used for the following tests.
# In the rabbit, the injection of this enzyme in the posterior chamber causes, after one month from the administration, an effect of ocular hypertension.
# At the end of the quarantine period the rabbits were anaesthetised by intramuscular administration of ketamine hydrochloride and xylazine hydrochloride (RBI). The right eye was gently pushed outwardly after instilling 25 μl of Novesine® eye-drops, containing oxybuprocaine as an anaesthetic; then, a sterile solution of σ-chymotrypsin (SIGMA, Milan; 150 units in 100 μl of physiologic sterile solution) was injected in the posterior chamber of the right eye by means of a 30G sterile needle. After the administration of the enzyme, the eye was thoroughly washed with physiologic sterile solution in order to remove any traces of α-chymotrypsin which could damage the ocular tissues. Then, 2 drops of a commercial ophthalmic antibiotic solution (Colbiocin®, SIFI S.p.A., containing chloramphenicol, rolitetracycline, colistin methanesulphonate) were instilled. The treatment was carried out 3 times a day (at 8.00 a.m., 12.00 a.m. and 6.00 p.m.) for one week after the administration of α-chymotrypsin. The rabbits were employed in the tests after one month from the induction of ocular hypertension by means of the enzyme.
# The rabbits, divided also in this case in groups of 4 animals, were treated by instillation of 50 μl of the product under test in the right conjunctival fornix.
# The intraocular pressure in the treated eye was measured, according to the same procedure as in the previous tests, 15 minutes before the instillation of the eye-drops and 30, 60, 90, 120, 180 and 240 minutes after. The values obtained were statistically analysed according to the criteria mentioned in the foregoing.
# The experimental conditions were exactly the same as before.
# [3] = eye-drops with 0.010% flunarizine
# [4] = eye-drops with 0.050% flunarizine
# [5] = eye-drops with 0.100% flunarizine
structure (smiles),measurement,setting,value
Fc1ccc(C(c2ccc(F)cc2)N2CCN(C/C=C/c3ccccc3)CC2)cc1 [flunarizine],"Effect on intraocular pressure in rabbits with normal pressure, in words",[1],better performance in lowering the intraocular pressure than timolol alone
same,"Effect on intraocular pressure in rabbits with ocular hypertension, in words","[2]; 50 μl eye-drops, 0.050% flunarizine, equimolar comparators, 0.5% timolol",effectiveness comparable to or better than that of timolol alone
same,"Intraocular pressure (mmHg) at the time (min): 30, average ± S.D.",[2]; [3],55.0 ± 5.35 mmHg
same,"Intraocular pressure (mmHg) at the time (min): 60, average ± S.D.",[2]; [3],52.7 ± 5.18 mmHg
same,"Intraocular pressure (mmHg) at the time (min): 90, average ± S.D.",[2]; [3],52.5 ± 5.44 mmHg
same,"Intraocular pressure (mmHg) at the time (min): 120, average ± S.D.",[2]; [3],55.7 ± 5.18 mmHg
same,"Intraocular pressure (mmHg) at the time (min): 180, average ± S.D.",[2]; [3],56.5 ± 6.60 mmHg
same,"Intraocular pressure (mmHg) at the time (min): 240, average ± S.D.",[2]; [3],57.5 ± 6.55 mmHg
same,"Intraocular pressure (mmHg) at the time (min): 0, average ± S.D.",[2]; [3],57.5 ± 6.13 mmHg
same,Intraocular pressure (mmHg) at the time (min): 30,[2]; [3],50 mmHg and 58 mmHg and 61 mmHg and 51 mmHg
same,Intraocular pressure (mmHg) at the time (min): 60,[2]; [3],48 mmHg and 55 mmHg and 59 mmHg and 49 mmHg
same,Intraocular pressure (mmHg) at the time (min): 90,[2]; [3],49 mmHg and 53 mmHg and 60 mmHg and 48 mmHg
same,Intraocular pressure (mmHg) at the time (min): 120,[2]; [3],51 mmHg and 58 mmHg and 62 mmHg and 52 mmHg
same,Intraocular pressure (mmHg) at the time (min): 180,[2]; [3],50 mmHg and 60 mmHg and 64 mmHg and 52 mmHg
same,Intraocular pressure (mmHg) at the time (min): 240,[2]; [3],52 mmHg (2×) and 61 mmHg and 65 mmHg
same,Intraocular pressure (mmHg) at the time (min): 0,[2]; [3],52 mmHg and 60 mmHg and 65 mmHg and 53 mmHg
same,"Intraocular pressure (mmHg) at the time (min): 30, average ± S.D.",[2]; [4],39.5 ± 7.32 mmHg
same,"Intraocular pressure (mmHg) at the time (min): 60, average ± S.D.",[2]; [4],37.7 ± 7.27 mmHg
same,"Intraocular pressure (mmHg) at the time (min): 90, average ± S.D.",[2]; [4],40.7 ± 7.63 mmHg
same,"Intraocular pressure (mmHg) at the time (min): 120, average ± S.D.",[2]; [4],42.2 ± 7.36 mmHg
same,"Intraocular pressure (mmHg) at the time (min): 180, average ± S.D.",[2]; [4],47.0 ± 8.28 mmHg
same,"Intraocular pressure (mmHg) at the time (min): 240, average ± S.D.",[2]; [4],47.2 ± 8.18 mmHg
same,"Intraocular pressure (mmHg) at the time (min): 0, average ± S.D.",[2]; [4],47.7 ± 9.03 mmHg
same,Intraocular pressure (mmHg) at the time (min): 30,[2]; [4],47 mmHg and 38 mmHg and 30 mmHg and 43 mmHg
same,Intraocular pressure (mmHg) at the time (min): 60,[2]; [4],45 mmHg and 37 mmHg and 28 mmHg and 41 mmHg
same,Intraocular pressure (mmHg) at the time (min): 90,[2]; [4],50 mmHg and 38 mmHg and 32 mmHg and 43 mmHg
same,Intraocular pressure (mmHg) at the time (min): 120,[2]; [4],51 mmHg and 39 mmHg and 34 mmHg and 45 mmHg
same,Intraocular pressure (mmHg) at the time (min): 180,[2]; [4],56 mmHg and 44 mmHg and 37 mmHg and 51 mmHg
same,Intraocular pressure (mmHg) at the time (min): 240,[2]; [4],56 mmHg and 45 mmHg and 37 mmHg and 51 mmHg
same,Intraocular pressure (mmHg) at the time (min): 0,[2]; [4],57 mmHg and 46 mmHg and 36 mmHg and 52 mmHg
same,"Intraocular pressure (mmHg) at the time (min): 30, average ± S.D.",[2]; [5],42.2 ± 5.31 mmHg
same,"Intraocular pressure (mmHg) at the time (min): 60, average ± S.D.",[2]; [5],39.2 ± 4.57 mmHg
same,"Intraocular pressure (mmHg) at the time (min): 90, average ± S.D.",[2]; [5],43.0 ± 5.71 mmHg
same,"Intraocular pressure (mmHg) at the time (min): 120, average ± S.D.",[2]; [5],45.0 ± 5.71 mmHg
same,"Intraocular pressure (mmHg) at the time (min): 180, average ± S.D.",[2]; [5],48.5 ± 6.24 mmHg
same,"Intraocular pressure (mmHg) at the time (min): 240, average ± S.D.",[2]; [5],49.7 ± 5.73 mmHg
same,"Intraocular pressure (mmHg) at the time (min): 0, average ± S.D.",[2]; [5],49.7 ± 6.6 mmHg
same,Intraocular pressure (mmHg) at the time (min): 30,[2]; [5],48 mmHg and 40 mmHg and 36 mmHg and 45 mmHg
same,Intraocular pressure (mmHg) at the time (min): 60,[2]; [5],45 mmHg and 38 mmHg and 34 mmHg and 40 mmHg
same,Intraocular pressure (mmHg) at the time (min): 90,[2]; [5],49 mmHg and 41 mmHg and 36 mmHg and 46 mmHg
same,Intraocular pressure (mmHg) at the time (min): 120,[2]; [5],51 mmHg and 43 mmHg and 38 mmHg and 48 mmHg
same,Intraocular pressure (mmHg) at the time (min): 180,[2]; [5],56 mmHg and 47 mmHg and 41 mmHg and 50 mmHg
same,Intraocular pressure (mmHg) at the time (min): 240,[2]; [5],57 mmHg and 49 mmHg and 43 mmHg and 50 mmHg
same,Intraocular pressure (mmHg) at the time (min): 0,[2]; [5],58 mmHg and 48 mmHg and 42 mmHg and 51 mmHg
